Consider 3 molecules from patent US10464963B2, “Compounds from invasive Salvinias and methods of using the same” (STEPHEN F. AUSTIN STATE UNIVERSITY, priority 2013, dated 2019).

Where two headings read alike, the source gives them in different places. A value given as a limit tells only on which side of the number the result lay.

The subject of series [1] is human exocrine pancreatic cancer cells (PANC-1). The series can be described thus: Cell proliferation assay (CCK-8), PANC-1. The format is cell-based. The conditions noted are these: 12, 24, 48, 72 h, FIG. 3. The method, then: (§1) CCK-8 (Dojindo Molecular, Maryland) was used to measure the proliferation response of salviniol (6) and montbretol (8) against human exocrine pancreatic cancer cell lines (PANC-1 and BxPC-3), according to the manufacturer's instructions. Cell were grown in growth medium plus 10% FBS and 5% antibiotics in 96-well plates and then were treated with various concentrations of test compounds and incubated for 12, 24, 48, and 72 h, respectively. The end of the incubation period, 10% CCK-8 solution was added to the wells. After 2 h incubation, the absorbance at 450 nm was measured. A calibration curve was prepared using the absorbance observed known numbers of viable cells.

In series [2] the test system is human leukemia (HL-60). The series can be described thus: Cytotoxicity assay (WST-8), HL-60. The format is cell-based. The conditions noted are these: Homo sapiens.
Series [3] concerns human exocrine pancreatic cancer (PANC-1). The series can be described thus: Cytotoxicity assay (WST-8), PANC-1. In kind it is cell-based. The conditions noted are these: Homo sapiens. The method, then:
(§2) PANC-1 and MRC-5 was cultured in complete growth medium according to the ATCC protocols. Cells were grown at 37° C. and 5% CO2 in humidified air.
(§3) Cytotoxicity of total extracts of S. molesta was tested against PANC-1, A549, PC-3, and MRC-5. Cytotoxicity of the fractions was determined using A549 cells, a human non-small lung cancer cell line. Fractions were tested at 25, 50, and 100 μg/mL. The isolated pure compounds were tested in each of the cultured human tumor and normal cell lines at various concentrations between 1 and 100 μM with three replications. Human tumor and normal cells were inoculated into 96 well microtiter plates in 90 μL at plating densities ranging from 5,000 to 40,000 cells/well (measured by Z2 Coulter Counter of Beckman) depending on the doubling time of individual cell lines. Cell growth and viability was measured by WST-8 (Water Soluble Tetrazolium) assays following a standard protocol (Cell Counting Kit-8, Dojindo Molecular, Maryland). The WST-8 assay measured the relative activity of mitochondrial reductase enzymes in viable cells. A control WST reading (T0) before treatment was measured, then cells were continuously exposed to isolates for 48 h. After WST added and incubated for 2 h, the amount of formazan was measured by using a microplate spectrophotometer (μQuant spectrophotometer, Bio-Tek Instruments, Inc., Vermont) at 450 nm. TC or TD represents the readings of the untreated control or with tested compounds. Percent cell-growth (G) and percent cell-growth inhibition (GI) was calculated as: G=(TD−T0/TC−T0)×100; GI=[1−(TD−T0/TC−T0)]×100 for which TD≥T0; and G=(TD−T0/T0)×100; GI=[1−(TD−T0/T0)]×100 for which TD≤T0. […] Cancer drug doxorubicin was used as the positive controls in the cell-based assays.

Series [4] relates to human non-small cell lung cancer (A549). The series can be described thus: Cytotoxicity assay (WST-8), A549. The format is cell-based. The conditions noted are these: Homo sapiens. The method, then:
as §2, §3

Series [5] has as its system human prostate cancer (PC-3). The series can be described thus: Cytotoxicity assay (WST-8), PC-3. The conditions noted are these: Homo sapiens. In kind it is cell-based. How it is done:
as §2, §3

Series [6] relates to human exocrine pancreatic cancer cells (BxPC-3). The series can be described thus: Cell proliferation assay (CCK-8), BxPC-3. The format is cell-based. The conditions noted are these: 12, 24, 48, 72 h, FIG. 3. How it is done:
as §1

Series [7] relates to human exocrine pancreatic cancer (BxPC-3). The series can be described thus: Cytotoxicity assay (WST-8), BxPC-3. The conditions noted are these: Homo sapiens. In kind it is cell-based.
The subject of series [8] is normal human lung fibroblasts cells (MRC-5). The series can be described thus: Cytotoxicity assay (WST-8), MRC-5. The format is cell-based. How it is done:
as §2, §3

Series [9] concerns human breast cancer (MDA-MB-231). The series can be described thus: cells. In kind it is cell-based. The source says: Human exocrine pancreatic cancer (PANC-1 and BxPC-3), non-small cell lung cancer (A549), prostate cancer (PC-3), breast cancer (MDA-MB-231), and leukemia (HL-60) were obtained from The University of Texas M. D. Anderson Cancer Center, Houston, Tex., and Normal human lung fibroblasts cells (MRC-5) was purchased from the American Type Culture Collection (ATCC). PC-3, A549 and HL-60 cells were maintained in RPMI 1640 medium supplemented with 10% (v/v) fetal bovine serum and antibiotics (1,000 units/mL penicillin-streptomycin solution, Hyclone). PANC-1 and MRC-5 was cultured in complete growth medium according to the ATCC protocols. Cells were grown at 37° C. and 5% CO2 in humidified air.
Cytotoxicity of total extracts of S. molesta was tested against PANC-1, A549, PC-3, and MRC-5. Cytotoxicity of the fractions was determined using A549 cells, a human non-small lung cancer cell line. Fractions were tested at 25, 50, and 100 μg/mL. The isolated pure compounds were tested in each of the cultured human tumor and normal cell lines at various concentrations between 1 and 100 μM with three replications. Human tumor and normal cells were inoculated into 96 well microtiter plates in 90 μL at plating densities ranging from 5,000 to 40,000 cells/well (measured by Z2 Coulter Counter of Beckman) depending on the doubling time of individual cell lines. Cell growth and viability was measured by WST-8 (Water Soluble Tetrazolium) assays following a standard protocol (Cell Counting Kit-8, Dojindo Molecular, Maryland). The WST-8 assay measured the relative activity of mitochondrial reductase enzymes in viable cells. A control WST reading (T0) before treatment was measured, then cells were continuously exposed to isolates for 48 h. After WST added and incubated for 2 h, the amount of formazan was measured by using a microplate spectrophotometer (μQuant spectrophotometer, Bio-Tek Instruments, Inc., Vermont) at 450 nm. TC or TD represents the readings of the untreated control or with tested compounds. Percent cell-growth (G) and percent cell-growth inhibition (GI) was calculated as: G=(TD−T0/TC−T0)×100; GI=[1−(TD−T0/TC−T0)]×100 for which TD≥T0; and G=(TD−T0/T0)×100; GI=[1−(TD−T0/T0)]×100 for which TD≤T0. To determine the inhibitory potency of active compounds (GI50, 50% cell-growth inhibition), tests were extended to additional concentrations (varying from 0.01 to 100 μM). Cancer drug doxorubicin was used as the positive controls in the cell-based assays.

Series [10] in a line: Cytotoxicity assay (WST-8), MRC-5. In kind it is cell-based, human. The conditions noted are these: human. How it is done:
as §2, §3

Where [11] appears, read: HL-60, 48 h, read-out: Cytotoxic activity (GI50) HL-60.
The mark [12] stands for this setting: PANC-1, 48 h, read-out: Cytotoxic activity (GI50) PANC-1.
Where [13] appears, read: PANC-1, Table 1, read-out: Activity against human exocrine pancreatic tumor PANC-1 (GI50).
Where [14] appears, read: A549, 48 h, read-out: Cytotoxic activity (GI50) A549.
Setting [15] is: A549, Table 1, read-out: Activity against human non-small cell lung tumor A549 (GI50) (converted).
[16] abbreviates: 48 h, read-out: Cytotoxic activity (GI50) PC-3.
Where [17] appears, read: BXPC-3, 48 h, read-out: Cytotoxic activity (GI50) BxPC-3.
[18] abbreviates: BXPC-3, Table 1, read-out: Activity against human exocrine pancreatic tumor BxPC-3 (GI50) (converted).
The mark [19] stands for this setting: MDA-MB-231, 48 h, read-out: Cytotoxic activity (GI50) MDA-MB-231.
Setting [20] is: MDA-MB-231, Table 1, read-out: Activity against human breast tumor MDA-MB-231 (GI50).

Take `CC(C)c1cc2c(cc1O)[C@@]1(C)CCCC(C)(C)[C@@H]1C[C@H]2CC1=CCC(O)(C(C)C)CC1` (stereo partly drawn) [Compound 6, 7-(menth-1-en-4-ol)-ferruginol]: the “Effect on proliferation of PANC-1 cells (in words)” value in [1] is “inhibit human pancreatic cancer cell proliferation in a dose-dependent manner”. Moreover, the GI50 is 48.1 ± 10.9 µM in series [2] (setting [11]); 48.1 µM in series [2] (HL-60, Table 1, read-out: Activity against human leukemia HL-60 (GI50) (converted)); 60.4 ± 16.2 µM in series [3] (setting [12]); 60.4 µM in series [3] (setting [13]); 62.9 ± 9.63 µM in [4] (setting [14]); 62.9 µM in series [4] (setting [15]). For the same molecule, the 50% growth inhibitory concentration (GI50) in [5] (setting [16]) is 54.2 ± 5.9 µM; in series [5] (Table 1, read-out: Activity against human prostate tumor PC-3 (GI50) (converted)), 54.2 µM; in [7] (setting [17]), 87.3 ± 24.5 µM; in [7] (setting [18]), 87.3 µM; in series [8] (human, 48 h), 58.4 ± 6.83 µM; in series [9] (setting [19]), 75 ± 1.37 µM. Moreover, in [9] (setting [20]), the GI50 was 75 µM. In series [6], the “Effect on proliferation of BxPC-3 cells (in words)” value is “inhibit human pancreatic cancer cell proliferation in a dose-dependent manner”.
With `CC(C)c1cc2c(c(O)c1O)[C@@]1(C)CCCC(C)(C)C1=C(O)C2=O` [Compound 7, 14-deoxycoleon U], the GI50 was 13.3 ± 5.62 µM in [2] (setting [11]); 22.6 ± 4.18 µM in series [3] (setting [12]); 22.6 µM in [3] (setting [13]); 9.1 ± 2.47 µM in series [4] (setting [14]); 9.1 µM in series [4] (setting [15]); 8.39 ± 0.86 µM in series [5] (setting [16]). The 50% growth inhibitory concentration (GI50) is 37.3 ± 7.44 µM in [7] (setting [17]), 37.3 µM in [7] (setting [18]), more than 100 µM in [9] (setting [19]) and more than 100 µM in series [9] (setting [20]). The GI50 at 48 h in series [10] was 24.8 µM. The “Toxicity against normal cell (in words)” value in [8] is given as “no toxic against normal cell”.
For the molecule `CC(C)c1cc2c(cc1O)[C@@]1(C)CCCC(C)(C)C1=C(O)C2=O` [Compound 8, montbretol], the “Effect on proliferation of PANC-1 cells (in words)” value in series [1] was “inhibit human pancreatic cancer cell proliferation in a dose-dependent manner”. Moreover, the concentration for 50% growth inhibition (GI50) in [2] (HL-60, Table 7, WST-8, 48 h exposure, mean ± S.D., read-out: Cytotoxic activity (GI50) HL-60) was 11.5 ± 3.13 µM; in series [3] (setting [13]), 23.1 µM; in series [3] (PANC-1, Table 7, WST-8, 48 h exposure, mean ± S.D., read-out: Cytotoxic activity (GI50) PANC-1), 23.1 ± 9.16 µM; in [4] (setting [15]), 11.1 µM; in [4] (A549, Table 7, WST-8, 48 h exposure, mean ± S.D., read-out: Cytotoxic activity (GI50) A549), 11.1 ± 3.16 µM; in series [5] (Table 7, WST-8, 48 h exposure, mean ± S.D., read-out: Cytotoxic activity (GI50) PC-3) it was 13.2 ± 2.03 µM. Besides, the 50% growth inhibitory concentration (GI50) was 25 µM in series [7] (setting [18]) and 25 ± 13.2 µM in series [7] (BXPC-3, Table 7, WST-8, 48 h exposure, mean ± S.D., read-out: Cytotoxic activity (GI50) BxPC-3). Also, the “Effect on proliferation of BxPC-3 cells (in words)” value in [6] is “inhibit human pancreatic cancer cell proliferation in a dose-dependent manner”. The GI50 at 48 h in [10] was 20 µM. Also, the “Toxicity against normal cell (in words)” value in series [8] is reported as “no toxic against normal cell”.
